Data taken from ChEMBL document CHEMBL1201862, “PubChem BioAssay data set” (2004).
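All cell lines were grown in 96-well plates and treated with compound for 48 hours. At the GI50, growth is halved.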 Active and inactive are the calls of the source. Rule as the data show it: active = GI50 up to about 1.1 µM and inactive = higher.

What was measured:
Experiment in all cases: NCI anticancer screen, dose series, 48 h
[1] = system: DLD-1
[2] = system: KM-20L2
[3] = system: RXF 631
[4] = system: HOP-18
[5] = system: DMS-114
[6] = system: M19-MEL
[7] = system: LXFL 529
[8] = system: SNB-78
[9] = system: XF498

SMILES | GI50 [1] | GI50 [2] | GI50 [3] | GI50 [4] | GI50 [5] | GI50 [6] | GI50 [7] | GI50 [8] | GI50 [9]
O=C(/C=C/c1ccccc1)/C=C/c1ccccc1 | 15.1 µM (inactive) | 22.1 µM (inactive) | 32.8 µM (inactive) | 28.6 µM (inactive) | 21.6 µM (inactive) | 20.6 µM (inactive) | 21.2 µM (inactive) | 92.9 µM (inactive) | –
COc1cc2c(cc1OC)C1Cc3cc(OC)c(OC)cc3C(C2)N1C | > 100 µM (inactive) | > 100 µM (inactive) | – | – | – | – | > 100 µM (inactive) | > 100 µM (inactive) | > 100 µM (inactive)
CNS(=O)(=O)NNS(=O)(=O)c1ccccc1 | > 100 µM (inactive) | > 100 µM (inactive) | – | > 100 µM (inactive) | > 100 µM (inactive) | > 100 µM (inactive) | > 100 µM (inactive) | – | > 100 µM (inactive)
C[Si](C)(C)OC1CC(=O)OC1n1cc(F)c(=O)[nH]c1=O (stereo not given) | 7.62 µM (inactive) | 16.2 µM (inactive) | 14.6 µM (inactive) | 23.2 µM (inactive) | 27.2 µM (inactive) | 12.1 µM (inactive) | 52.4 µM (inactive) | – | 90.2 µM (inactive)
Cc1nc2c(s/c(=N\N)n2-c2ccccc2)c(=O)n1C | – | > 100 µM (inactive) | – | – | > 100 µM (inactive) | > 100 µM (inactive) | > 100 µM (inactive) | > 100 µM (inactive) | > 100 µM (inactive)
O=C(O)CNS(=O)(=O)c1ccc(NC(=O)c2cccc([N+](=O)[O-])c2)cc1 | > 100 µM (inactive) | > 100 µM (inactive) | > 100 µM (inactive) | > 100 µM (inactive) | – | > 100 µM (inactive) | > 100 µM (inactive) | – | > 100 µM (inactive)
C/C=C1\CN2CCc3c([nH]c4ccccc34)C2C=C1CCO (stereo not given) | > 340 µM (inactive) | > 340 µM (inactive) | > 340 µM (inactive) | – | > 340 µM (inactive) | > 340 µM (inactive) | > 340 µM (inactive) | – | 208 µM (inactive)
Cc1ccc(C)c(N2C(=O)C(=O)C(c3nc4ccccc4s3)/C(=N\c3cccc4c(=O)[nH][nH]c(=O)c34)C2=O)c1 (stereo not given) | > 100 µM (inactive) | > 100 µM (inactive) | > 100 µM (inactive) | > 100 µM (inactive) | > 100 µM (inactive) | – | > 100 µM (inactive) | – | –
C=C(CCCCC)CN1CCCC1[C@@](C)(O)CC(=O)OCC (stereo not given in full) | > 100 µM (inactive) | > 100 µM (inactive) | – | > 100 µM (inactive) | > 100 µM (inactive) | > 100 µM (inactive) | > 100 µM (inactive) | > 100 µM (inactive) | > 76.6 µM (inactive)
COc1ccc(C2=CN3CCC[C@H]3C=C2c2cc(O)c(OC)c(OC)c2)cc1OC | 0.00316 µM (active) | 0.00887 µM (active) | – | 0.00427 µM (active) | 0.00385 µM (active) | 0.00274 µM (active) | 0.00389 µM (active) | 0.00385 µM (active) | –
Cc1ccc(NC(=O)COC(=O)c2cccc3c(=O)c4ccccc4[nH]c23)cc1 | 14.6 µM (inactive) | 53.2 µM (inactive) | 24.4 µM (inactive) | > 100 µM (inactive) | 34.2 µM (inactive) | 46.7 µM (inactive) | 32.1 µM (inactive) | 27.6 µM (inactive) | 41 µM (inactive)
O=C(OCCOCCOC(=O)c1c[nH]cc1-c1ccccc1)c1c[nH]cc1-c1ccccc1 | 24.8 µM (inactive) | 21.9 µM (inactive) | – | – | 13.8 µM (inactive) | 18.7 µM (inactive) | 21.8 µM (inactive) | 19.3 µM (inactive) | 19.9 µM (inactive)
COC1OC(COS(=O)(=O)c2ccc(C)cc2)C(O)C(OS(=O)(=O)c2ccc(C)cc2)C1OS(=O)(=O)c1ccc(C)cc1 (stereo not given) | > 100 µM (inactive) | > 100 µM (inactive) | > 100 µM (inactive) | > 100 µM (inactive) | > 100 µM (inactive) | > 100 µM (inactive) | > 100 µM (inactive) | > 100 µM (inactive) | –
C=C1C(C)C2C(Cc3ccccc3)NC(=O)C23OC(=O)/C=C\CC(=O)CCC(C)C/C=C/C3C1O (stereo not given) | 1.18 µM (inactive) | 3.66 µM (inactive) | – | 0.326 µM (active) | 2.42 µM (inactive) | 4.3 µM (inactive) | – | 0.36 µM (active) | 0.287 µM (active)
CC1(C(=O)NCCN(CCNC(=O)C2(C)CC3(C)CC(C)(C2)C(=O)NC3=O)CCNC(=O)C2(C)CC3(C)CC(C)(C2)C(=O)NC3=O)CC2(C)CC(C)(C1)C(=O)NC2=O (stereo not given) | – | > 100 µM (inactive) | – | 94.4 µM (inactive) | > 100 µM (inactive) | > 100 µM (inactive) | > 100 µM (inactive) | > 100 µM (inactive) | > 100 µM (inactive)
N#CNc1nc(N)c(-c2ccc(Cl)cc2)c(C(=O)Nc2nccs2)n1 | > 100 µM (inactive) | > 100 µM (inactive) | – | > 100 µM (inactive) | > 100 µM (inactive) | > 100 µM (inactive) | > 100 µM (inactive) | > 100 µM (inactive) | > 100 µM (inactive)
NS(=O)(=O)c1ccc(NC(=O)c2cccc3c(Nc4ccc(S(N)(=O)=O)cc4)c4ccccc4nc23)cc1 | 24.7 µM (inactive) | 67.1 µM (inactive) | 3.48 µM (inactive) | > 100 µM (inactive) | 39.3 µM (inactive) | 21.4 µM (inactive) | 12.2 µM (inactive) | 29.8 µM (inactive) | 27.2 µM (inactive)
Cc1nn(C(=O)CC(=O)Nc2ccc(Cl)cc2)c(C)c1/N=N/c1ccccc1C(=O)O | > 100 µM (inactive) | > 100 µM (inactive) | – | – | > 100 µM (inactive) | > 100 µM (inactive) | > 100 µM (inactive) | > 100 µM (inactive) | –
Nc1nc(N)c(-c2ccc(Cl)cc2)c(CCC(=O)Nc2cccc(C(F)(F)F)c2)n1 | > 100 µM (inactive) | > 100 µM (inactive) | > 100 µM (inactive) | > 100 µM (inactive) | > 100 µM (inactive) | – | > 100 µM (inactive) | > 100 µM (inactive) | > 100 µM (inactive)
CCO/C([O-])=C(\C(=O)c1ccccc1)[n+]1c(C)n(C)c2ccccc21 | > 100 µM (inactive) | > 100 µM (inactive) | – | > 100 µM (inactive) | > 100 µM (inactive) | > 100 µM (inactive) | > 100 µM (inactive) | > 100 µM (inactive) | –
CC(=O)n1c2ccccc2c2nc3nc(Oc4ccc(C)cc4)c4ccccc4c3cc21 | > 100 µM (inactive) | > 100 µM (inactive) | – | – | > 100 µM (inactive) | > 100 µM (inactive) | 97.9 µM (inactive) | 42.5 µM (inactive) | –
COC(=O)/C(=N\NC(C)(C)C)C(C(=O)OC)C(=O)C(=O)Nc1cc(Cl)ccc1Cl (stereo not given) | > 100 µM (inactive) | > 100 µM (inactive) | > 100 µM (inactive) | > 100 µM (inactive) | > 100 µM (inactive) | > 100 µM (inactive) | > 100 µM (inactive) | > 100 µM (inactive) | > 100 µM (inactive)
CCCCNC(=O)CCN(C(=O)O)S(=O)(=O)c1ccc(NC(=O)c2ccccc2)cc1 | > 100 µM (inactive) | > 100 µM (inactive) | – | > 100 µM (inactive) | > 100 µM (inactive) | 79.4 µM (inactive) | > 100 µM (inactive) | > 100 µM (inactive) | > 100 µM (inactive)
C1C[N+]23CCC[N+]2(C1)CCC3 (stereo not given) | > 100 µM (inactive) | > 100 µM (inactive) | > 100 µM (inactive) | > 100 µM (inactive) | > 100 µM (inactive) | > 100 µM (inactive) | > 100 µM (inactive) | > 100 µM (inactive) | –
O=C1CCC2(c3ccc(Cl)cc3)Nc3cc(Cl)ccc3N12 (stereo not given) | 5.75 µM (inactive) | 15.2 µM (inactive) | 14.7 µM (inactive) | 1.25 µM (inactive) | 7.4 µM (inactive) | 12.8 µM (inactive) | 10.8 µM (inactive) | 15.3 µM (inactive) | 2.31 µM (inactive)
Nc1ccc(C(=O)Nc2ccccc2N)cc1 [DINALINE] | 44.3 µM (inactive) | – | 37.4 µM (inactive) | 36.7 µM (inactive) | 34.5 µM (inactive) | 25.7 µM (inactive) | 22.5 µM (inactive) | > 100 µM (inactive) | > 100 µM (inactive)
CO[C@H]1[C@H](O)[C@H](O[C@H]2CC[C@@]3(C)[C@H](CC[C@@H]4[C@@H]3CC[C@]3(C)[C@@H](C5=CC(=O)OC5)CC[C@]43O)C2)O[C@@H](C)[C@@H]1O [NERIIFOLIN] | 0.00184 µM (active) | 0.00311 µM (active) | – | 0.000476 µM (active) | 0.000138 µM (active) | 0.00363 µM (active) | 0.00135 µM (active) | 0.000552 µM (active) | –
